Results taken from patent US11225460B2, “Pyrrolidineamide derivatives and uses thereof” (SUNSHINE LAKE PHARMA CO., LTD., priority 2019, dated 2022).
Where two headings read alike, the source gives them in different places.

How the values were obtained:
[1] = Pharmacokinetic evaluation after intravenous or gavage administration in monkeys; assay type: in vivo
Experimental: The LC-MS/MS system comprises Agilent 1200 series vacuum degassing furnace, quaternary pumps, well-plate autosampler, thermostatted column compartment, the API4000Qtrap Triple Quadrupole Mass Spectrometer with an electrospray ionization (ESI) source. Quantitative analysis was carried out using MRM mode. The parameters for MRM transitions are in Table 2.
Analysis was carried out on waters xbridge C18 (2.1×50 mm, […] column, 0.5 μL of sample), the analytic conditions are mobile phases cosisting of water+2 mM ammonium formate+0.1% formic acid (Phase A) and methanol+2 mM ammonium formate+0.1% formic acid (Phase B). The flow rate was 0.4 mL/min. And the gradient of Mobile phase was in Table 3.
Each animal species was divided into two groups: one was administered intravenously and the other was administered intragastrically. The compounds disclosed herein were administered in form of a solution containing 5% DMSO+5% Kolliphor HS15+90% Saline. For the group of intravenous administration, the administration dose was 1 mg/kg, and vein blood samples (0.3 ml) were collected at the time points of 0.083, 0.25, 0.5, 1.0, 2.0, 4.0, 6.0, 8.0 and 24 h after drug administration, then plasma solutions were collected by centrifuging each blood sample at 3000 rpm or 4000 rpm for 10 minutes and kept at −20° C. or −70° C. For the group of intragastric administration, the administration dose was 5 mg/kg, and vein blood samples (0.3 mL) were collected at the time points of 0.25, 0.5, 1.0, 2.0, 4.0, 6.0, 8.0 and 24 h after drug administration, then plasma solutions were collected by centrifuging each blood sample at 3000 rpm or 4000 rpm for 10 minutes and kept at −20° C. or −70° C.
20 μL of plasma was blended with 120 μl, 50 ng/ml propranolol standard water solution, then the mixture was extracted with 1.0 mL methyl tert-butyl ether (MTBE), 0.7 mL of supernatant was dried by blow with nitrogen and then dissolved again with 220 μL methanol water (methanol/water (v/v)=1/1). LC-MS/MS method was used to detect the concentration of the target compounds, and […] was used to calculate the pharmacokinetic parameters.

[2] = Evaluation of blood-brain barrier (BBB) after peritoneal injection in rats; assay type: in vivo; settings: SD rats, intraperitoneal 10 mg/kg; for Kp at 15 min / Kp at 60 min / Kp at 120 min: Sprague-Dawley, rat
Experimental: The analysis method was the same as example B.
The experiment was divided into three groups: 15 min group, 1 h group and 2 h group. After overnight fasting for 12 hours, SD rats were administered by intraperitoneal injection with the compound of the invention in the form of 5% DMSO+5% Kolliphor HS15+90% Saline solution at a dose of 10 mg/kg. Blood, cerebrospinal fluid and brain tissue were collected at 15 minutes, 1 hour and 2 hours respectively after administration. Blood samples were centrifuged at 3,000 or 4,000 rpm for 10 minutes. The plasma solution was collected and kept at −20° C. or −70° C. The cerebrospinal fluid was processed using a protein precipitation method. A certain volume of cerebrospinal fluid sample were precisely absorbed and precipitated by adding 5 times acetonitrile solution containing internal standard. The mixture was mixed well by vortexing, and then centrifuged for 2 minutes at 12,000 rpm at 4° C., the supernatant was kept at −80° C. Brain tissue was homogenized with 2 times methanol solution, and centrifuged to get the supernatant, the supernatant were precipitated by adding 5 times acetonitrile solution containing internal standard.
The mixture was mixed well by vortexing, and then centrifuged for 2 minutes at 12,000 rpm at 4° C., the supernatant was kept at −80° C. LC-MS/MS method was used to detect the concentration of target compounds, BBB permeability was calculated and statistical analysis was carried out.

[3] = monkey, plasma, iv, i.v group, 1 mg/kg
[4] = monkey, plasma, po, i.g group, 5 mg/kg
[5] = brain, 15 min, read-out: T/P Ratio Brain (brain tissue)
[6] = brain, 60 min, read-out: T/P Ratio Brain (brain tissue)
[7] = brain, 120 min, read-out: T/P Ratio Brain (brain tissue)
[8] = cerebrospinal fluid, 15 min, read-out: T/P Ratio CSF (cerebrospinal fluid)
[9] = cerebrospinal fluid, 60 min, read-out: T/P Ratio CSF (cerebrospinal fluid)
[10] = cerebrospinal fluid, 120 min, read-out: T/P Ratio CSF (cerebrospinal fluid)

| SMILES | F ([1]; i.g group, 5 mg/kg) | AUC(0-inf) [1, 3] | MRT inf [1, 3] | Tmax [1, 3] | AUC(0-inf) [1, 4] | MRT inf [1, 4] | Tmax [1, 4] | Conc. Brain (brain tissue) ([2]; 15 min) | Conc. CSF (cerebrospinal fluid) ([2]; 15 min) | Conc. Plasm (plasma) ([2]; 15 min) | Conc. Brain (brain tissue) ([2]; 60 min) | Conc. CSF (cerebrospinal fluid) ([2]; 60 min) | Conc. Plasm (plasma) ([2]; 60 min) | Conc. Brain (brain tissue) ([2]; 120 min) | Conc. CSF (cerebrospinal fluid) ([2]; 120 min) | Conc. Plasm (plasma) ([2]; 120 min) | Kp at 15 min [2, 5] | Kp at 60 min [2, 6] | Kp at 120 min [2, 7] | Kp at 15 min [2, 8] | also measured |
| --- | --- | --- | --- | --- | --- | --- | --- | --- | --- | --- | --- | --- | --- | --- | --- | --- | --- | --- | --- | --- | --- |
| NC(=O)[C@@H]1C[C@H](F)CN1Cc1ccc(OCc2cccc(F)c2)cc1 [Example 1, (2S,4S)-4-fluoro-1-(4-(3-fluorobenzyloxy)benzyl)pyrrolidine-2-formamide] | 107.1% | 2210 ng·h/mL | 2.35 h | 0.083 h | 11400 ng·h/mL | 4.33 h | 1 h | 10243.33 ng/g or ng/ml | 147.67 ng/g or ng/ml | 5203.33 ng/g or ng/ml | 9273.33 ng/g or ng/ml | 61.9 ng/g or ng/ml | 2073.33 ng/g or ng/ml | 2890 ng/g or ng/ml | 34.4 ng/g or ng/ml | 864.33 ng/g or ng/ml | 1.97 | 4.47 | 3.34 | 0.028 | AUClast ([1]; i.g group, 5 mg/kg): 11300 ng·h/mL; Cmax ([1]; i.g group, 5 mg/kg): 2280 ng/mL; T1/2 ([1]; i.g group, 5 mg/kg): 2.8 h; AUClast ([1]; i.v group, 1 mg/kg): 2120 ng·h/mL; Cl ([1]; i.v group, 1 mg/kg): 7.54 mL/min/kg; Cmax ([1]; i.v group, 1 mg/kg): 924 ng/mL; T1/2 ([1]; i.v group, 1 mg/kg): 1.77 h; Kp at 60 min [2, 9]: 0.03; Kp at 120 min [2, 10]: 0.04 |
| NC(=O)[C@@H]1C[C@H](F)CN1Cc1ccc(OCc2cccc(F)c2)cc1F [Example 3, (2S,4S)-4-fluoro-1-(2-fluoro-4-(3-fluorobenzyloxy)benzyl)pyrrolidine-2-formamide] | 69.1% | 3260 ng·h/mL | 3.41 h | 0.083 h | 11200 ng·h/mL | 5.02 h | 1 h | 8610 ng/g or ng/ml | 56.67 ng/g or ng/ml | 3496.67 ng/g or ng/ml | 5253.33 ng/g or ng/ml | 39.77 ng/g or ng/ml | 1930 ng/g or ng/ml | 1576.67 ng/g or ng/ml | 13.05 ng/g or ng/ml | 686.67 ng/g or ng/ml | 2.46 | 2.72 | 2.3 | 0.016 | AUC(0-t) [1, 3]: 3240 ng·h/mL; clearance [1, 3]: 5.12 mL/min/kg; half-life [1, 3]: 2.24 h; Cmax ([1]; monkey, plasma, iv, i.v group, 1 mg/kg, read-out: Cmax): 1610 ng/mL; AUC(0-t) [1, 4]: 11200 ng·h/mL; half-life [1, 4]: 3.39 h; Cmax ([1]; monkey, plasma, po, i.g group, 5 mg/kg, read-out: Cmax): 2010 ng/mL; Kp at 60 min [2, 9]: 0.021; Kp at 120 min [2, 10]: 0.019 |
